How the values were obtained:
Assay type in all cases: biochemical
BTK T474I = target: T1, BTK T474I (Homo sapiens, UniProt Q06187, T474I); experiment: Kinase activity inhibition assay (HTRF TK Kit)
T1 construct: purchased SignalChem B10-12HH
Method in brief: (§1)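 Read-out: 665/620 nm HTRF ratio after 1 h room-temperature detection with streptavidin-XL665 and TK antibody-cryptate. Kinase reactions (compound, substrate/ATP, enzyme, assembled on ice) ran at room temperature beforehand. Inhibition normalised to blank and positive controls, IC50 by variable-slope sigmoidal fit.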

BTK kinase = target: T2, BTK kinase (Homo sapiens, UniProt Q06187); experiment: Kinase activity inhibition assay (HTRF TK Kit)
T2 construct: purchased Invitrogen PV3587
T2 sequence (Q06187 whole entry): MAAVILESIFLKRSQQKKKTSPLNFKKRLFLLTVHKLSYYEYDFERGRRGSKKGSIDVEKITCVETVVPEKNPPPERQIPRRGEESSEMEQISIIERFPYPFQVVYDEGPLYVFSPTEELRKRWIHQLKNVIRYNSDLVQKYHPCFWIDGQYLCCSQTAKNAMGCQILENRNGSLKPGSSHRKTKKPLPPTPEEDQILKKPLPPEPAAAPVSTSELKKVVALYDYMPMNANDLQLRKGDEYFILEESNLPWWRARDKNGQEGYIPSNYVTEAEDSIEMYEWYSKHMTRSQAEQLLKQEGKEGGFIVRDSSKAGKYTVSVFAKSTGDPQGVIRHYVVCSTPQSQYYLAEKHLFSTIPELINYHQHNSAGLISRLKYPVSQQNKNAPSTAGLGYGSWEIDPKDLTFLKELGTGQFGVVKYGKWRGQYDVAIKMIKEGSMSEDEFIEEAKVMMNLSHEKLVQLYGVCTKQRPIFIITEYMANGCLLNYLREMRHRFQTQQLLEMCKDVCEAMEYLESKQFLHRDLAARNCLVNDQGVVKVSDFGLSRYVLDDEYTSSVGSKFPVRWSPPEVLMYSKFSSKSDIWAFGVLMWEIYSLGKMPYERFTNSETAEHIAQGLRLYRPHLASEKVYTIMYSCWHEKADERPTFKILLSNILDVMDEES
Method in brief: as §1

BTK C481S = target: T3, BTK C481S (Homo sapiens, UniProt Q06187, C481S); experiment: Kinase activity inhibition assay (HTRF TK Kit)
T3 construct: purchased Carna 08-547
T3 sequence (Q06187 whole entry C481S): as the sequence (Q06187 whole entry) above, with C481S counted along it
Method in brief: as §1

TEC = target: T4, TEC (Homo sapiens, UniProt P42680); experiment: Kinase activity inhibition assay (HTRF TK Kit), selectivity
T4 construct: purchased Carna 08-182
T4 sequence (P42680 1-631): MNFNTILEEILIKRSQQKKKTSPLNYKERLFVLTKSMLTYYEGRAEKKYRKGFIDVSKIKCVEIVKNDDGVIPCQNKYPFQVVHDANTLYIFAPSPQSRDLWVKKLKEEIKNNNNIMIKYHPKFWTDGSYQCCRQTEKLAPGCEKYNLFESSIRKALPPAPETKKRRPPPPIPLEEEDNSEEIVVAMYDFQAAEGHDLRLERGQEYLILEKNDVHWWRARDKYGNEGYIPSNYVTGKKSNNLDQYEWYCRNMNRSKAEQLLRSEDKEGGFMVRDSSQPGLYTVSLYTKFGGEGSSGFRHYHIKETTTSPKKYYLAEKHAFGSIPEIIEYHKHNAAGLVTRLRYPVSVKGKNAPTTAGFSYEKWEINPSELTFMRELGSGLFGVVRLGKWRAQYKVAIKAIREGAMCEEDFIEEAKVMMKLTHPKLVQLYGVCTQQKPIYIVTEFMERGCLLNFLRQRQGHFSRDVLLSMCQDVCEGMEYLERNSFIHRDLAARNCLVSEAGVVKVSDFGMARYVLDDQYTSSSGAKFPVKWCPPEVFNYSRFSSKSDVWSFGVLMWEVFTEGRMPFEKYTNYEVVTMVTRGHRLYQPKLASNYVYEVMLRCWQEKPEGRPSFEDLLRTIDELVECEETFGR
Method in brief: as §1

EGFR = target: T5, EGFR (Homo sapiens, UniProt P00533); experiment: as above
T5 construct: purchased Carna 08-115
T5 sequence (P00533 669-1210 limits assumed): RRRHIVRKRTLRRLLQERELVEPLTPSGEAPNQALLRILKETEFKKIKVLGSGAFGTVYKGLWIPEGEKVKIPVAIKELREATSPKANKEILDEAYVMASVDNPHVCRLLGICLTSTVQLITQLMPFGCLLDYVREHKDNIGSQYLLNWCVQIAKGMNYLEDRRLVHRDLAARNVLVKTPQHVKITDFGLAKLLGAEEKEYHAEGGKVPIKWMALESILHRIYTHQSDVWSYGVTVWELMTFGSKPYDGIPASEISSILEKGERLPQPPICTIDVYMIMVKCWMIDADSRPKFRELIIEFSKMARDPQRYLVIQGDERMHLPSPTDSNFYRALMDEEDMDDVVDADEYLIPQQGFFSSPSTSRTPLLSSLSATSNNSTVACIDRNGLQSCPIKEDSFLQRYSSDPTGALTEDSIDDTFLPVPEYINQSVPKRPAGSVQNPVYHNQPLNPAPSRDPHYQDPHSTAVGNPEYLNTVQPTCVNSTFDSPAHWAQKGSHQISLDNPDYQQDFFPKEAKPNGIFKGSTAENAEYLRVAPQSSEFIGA
Method in brief: as §1

ITK = target: T6, ITK (Homo sapiens, UniProt Q08881); experiment: as above
T6 construct: purchased Carna 08-181
T6 sequence (Q08881 1-620): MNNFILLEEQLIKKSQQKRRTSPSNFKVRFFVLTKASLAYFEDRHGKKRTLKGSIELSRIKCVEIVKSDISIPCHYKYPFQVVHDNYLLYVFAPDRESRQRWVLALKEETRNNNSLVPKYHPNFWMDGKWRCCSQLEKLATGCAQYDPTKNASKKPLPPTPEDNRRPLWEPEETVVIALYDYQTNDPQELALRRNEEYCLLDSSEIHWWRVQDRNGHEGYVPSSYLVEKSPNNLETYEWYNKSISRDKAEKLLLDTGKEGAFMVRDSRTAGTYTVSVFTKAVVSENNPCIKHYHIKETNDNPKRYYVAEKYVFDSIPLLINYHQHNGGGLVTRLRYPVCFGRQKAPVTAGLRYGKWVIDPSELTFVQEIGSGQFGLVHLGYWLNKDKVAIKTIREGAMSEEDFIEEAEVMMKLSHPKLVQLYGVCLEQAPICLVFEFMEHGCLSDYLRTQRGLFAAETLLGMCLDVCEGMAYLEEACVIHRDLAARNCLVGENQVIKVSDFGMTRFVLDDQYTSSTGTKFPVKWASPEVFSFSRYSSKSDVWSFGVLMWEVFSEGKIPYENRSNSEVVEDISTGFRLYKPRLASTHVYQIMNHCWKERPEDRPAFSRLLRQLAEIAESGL
Method in brief: as §1

T1 sequence (Q06187 whole entry T474I): as the sequence (Q06187 whole entry) above, with T474I counted along it

Structure (SMILES)	IC50 (BTK T474I)	IC50 (BTK kinase)	IC50 (BTK C481S)	IC50 (TEC)	IC50 (EGFR)	IC50 (ITK)
COc1ccc(F)cc1C(=O)NCc1ccc(-c2ncc(-c3ccc(CN4CCOCC4)cn3)c3[nH]nc(N)c23)cc1 [Example 67, N-(4-(3-amino-7-(5-(morpholinomethyl)pyridin-2-yl)-1H-pyrazolo[4,3-c]pyridin-4-yl)benzyl)-5-fluoro-2-methoxybenzamide]	50 to 500 nM	≤ 1 nM	≤ 1 nM	5 to 50 nM	5 to 50 nM	50 to 500 nM
COc1ccc(F)cc1C(=O)NCc1ccc(-c2ncc(-c3cnn4cccnc34)c3[nH]nc(N)c23)cc1 [Example 70, N-(4-(3-amino-7-(pyrazolo[1,5-a]pyrimidin-3-yl)-1H-pyrazolo[4,3-c]pyridin-4-yl)benzyl)-5-fluoro-2-methoxybenzamide]	50 to 500 nM	1 to 5 nM	1 to 5 nM	5 to 50 nM	50 to 500 nM	> 500 nM
COc1ccc(F)cc1C(=O)NCc1ccc(-c2ncc(-c3nccn4cccc34)c3[nH]nc(N)c23)cc1 [Example 77, N-(4-(3-amino-7-(pyrrolo[1,2-a]pyrazin-1-yl)-1H-pyrazolo[4,3-c]pyridin-4-yl)benzyl)-5-fluoro-2-methoxybenzamide]	50 to 500 nM	1 to 5 nM	1 to 5 nM	5 to 50 nM	50 to 500 nM	> 500 nM
COc1ccc(F)cc1C(=O)NCc1ccc(-c2ncc(-c3cc4cnccn4n3)c3[nH]nc(N)c23)cc1 [Example 78, N-(4-(3-amino-7-(pyrazolo[1,5-a]pyrazin-2-yl)-1H-pyrazolo[4,3-c]pyridin-4-yl)benzyl)-5-fluoro-2-methoxybenzamide]	5 to 50 nM	≤ 1 nM	≤ 1 nM	5 to 50 nM	5 to 50 nM	50 to 500 nM
COc1ccc(F)cc1C(=O)NCc1ccc(-c2ncc(-c3ccc(NC(=O)C4CC4)cn3)c3[nH]nc(N)c23)cc1 [Example 79, N-(4-(3-amino-7-(5-(cyclopropaneformamido)pyridin-2-yl)-1H-pyrazolo[4,3-c]pyridin-4-yl)benzyl)-5-fluoro-2-methoxybenzamide]	> 500 nM	5 to 50 nM	5 to 50 nM	> 500 nM	> 500 nM	> 500 nM
COc1ccc(F)cc1C(=O)NCc1ccc(-c2ncc(-c3cc(NC(=O)C4CC4)ccn3)c3[nH]nc(N)c23)cc1 [Example 80, N-(4-(3-amino-7-(4-(cyclopropaneformamido)pyridin-2-yl)-1H-pyrazolo[4,3-c]pyridin-4-yl)benzyl)-5-fluoro-2-methoxybenzamide]	50 to 500 nM	1 to 5 nM	1 to 5 nM	5 to 50 nM	50 to 500 nM	> 500 nM
COc1ccc(F)cc1C(=O)NCc1ccc(-c2ncc(-c3ccc(F)cn3)c3[nH]nc(N)c23)c(F)c1 [Example 82, N-(4-(3-amino-7-(5-fluoropyridin-2-yl)-1H-pyrazolo[4,3-c]pyridin-4-yl)-3-fluorobenzyl)-5-fluoro-2-methoxybenzamide]	50 to 500 nM	1 to 5 nM	1 to 5 nM	50 to 500 nM	> 500 nM	> 500 nM

Next, values leading:

IC50 (BTK T474I)	IC50 (BTK kinase)	IC50 (BTK C481S)	IC50 (TEC)	IC50 (EGFR)	IC50 (ITK)	Structure (SMILES)
5 to 50 nM	≤ 1 nM	≤ 1 nM	5 to 50 nM	5 to 50 nM	50 to 500 nM	COc1ccc(F)cc1C(=O)NCc1ccc(-c2ncc(-c3ccc(CN4CCCCC4)cn3)c3[nH]nc(N)c23)cc1 [Example 66, N-(4-(3-amino-7-(5-(piperidin-1-ylmethyl)pyridin-2-yl)-1H-pyrazolo[4,3-c]pyridin-4-yl)benzyl)-5-fluoro-2-methoxybenzamide]
5 to 50 nM	1 to 5 nM	1 to 5 nM	5 to 50 nM	5 to 50 nM	50 to 500 nM	COc1ccc(F)cc1C(=O)NCc1ccc(-c2ncc(-c3ccc(CN4CCN(C)CC4)cn3)c3[nH]nc(N)c23)cc1 [Example 68, N-(4-(3-amino-7-(5-((4-methylpiperazin-1-yl)methyl)pyridin-2-yl)-1H-pyrazolo[4,3-c]pyridin-4-yl)benzyl)-5-fluoro-2-methoxybenzamide]
5 to 50 nM	≤ 1 nM	≤ 1 nM	1 to 5 nM	5 to 50 nM	50 to 500 nM	COc1ccc(F)cc1C(=O)NCc1ccc(-c2ncc(-c3cc4ccccn4n3)c3[nH]nc(N)c23)cc1 [Example 69, N-(4-(3-amino-7-(pyrazolo[1,5-a]pyridin-2-yl)-1H-pyrazolo[4,3-c]pyridin-4-yl)benzyl)-5-fluoro-2-methoxybenzamide]
5 to 50 nM	1 to 5 nM	≤ 1 nM	5 to 50 nM	5 to 50 nM	50 to 500 nM	COc1ccc(F)cc1C(=O)NCc1ccc(-c2ncc(-c3cc4n(n3)CCN(C)C4)c3[nH]nc(N)c23)cc1 [Example 71, N-(4-(3-amino-7-(5-methyl-4,5,6,7-tetrahydropyrazolo[1,5-a]pyrazin-2-yl)-1H-pyrazolo[4,3-c]pyridin-4-yl)benzyl)-5-fluoro-2-methoxybenzamide]
5 to 50 nM	≤ 1 nM	≤ 1 nM	5 to 50 nM	5 to 50 nM	50 to 500 nM	CCN1CCn2nc(-c3cnc(-c4ccc(CNC(=O)c5cc(F)ccc5OC)cc4)c4c(N)n[nH]c34)cc2C1 [Example 72, N-(4-(3-amino-7-(5-ethyl-4,5,6,7-tetrahydropyrazolo[1,5-a]pyrazin-2-yl)-1H-pyrazolo[4,3-c]pyridin-4-yl)benzyl)-5-fluoro-2-methoxybenzamide]
5 to 50 nM	≤ 1 nM	≤ 1 nM	5 to 50 nM	5 to 50 nM	50 to 500 nM	COc1ccc(F)cc1C(=O)NCc1ccc(-c2ncc(-c3ccc(N4CCN(C)CC4)cn3)c3[nH]nc(N)c23)cc1 [Example 73, N-(4-(3-amino-7-(5-(4-methylpiperazin-1-yl)pyridin-2-yl)-1H-pyrazolo[4,3-c]pyridin-4-yl)benzyl)-5-fluoro-2-methoxybenzamide]
5 to 50 nM	1 to 5 nM	1 to 5 nM	> 500 nM	5 to 50 nM	50 to 500 nM	COc1ccc(F)cc1C(=O)NCc1ccc(-c2ncc(-c3ccc(N4CCN(C)C[C@@H]4C)cn3)c3[nH]nc(N)c23)cc1 [Example 74, (S)-N-(-4-(3-amino-7-(5-(2,4-dimethylpiperazin-1-yl)pyridin-2-yl) 1H-pyrazolo[4,3-c]pyridin-4-yl)benzyl)-5-fluoro-2-methoxybenzamide]
5 to 50 nM	1 to 5 nM	≤ 1 nM	5 to 50 nM	5 to 50 nM	5 to 50 nM	COc1ccc(F)cc1C(=O)NCc1ccc(-c2ncc(-c3ccc(N4CCN(C)C[C@H]4C)cn3)c3[nH]nc(N)c23)cc1 [Example 75, (R)-N-(-4-(3-amino-7-(5-(2,4-dimethylpiperazin-1-yl)pyridin-2-yl) 1H-pyrazolo[4,3-c]pyridin-4-yl)benzyl)-5-fluoro-2-methoxybenzamide]
1 to 5 nM	≤ 1 nM	≤ 1 nM	1 to 5 nM	5 to 50 nM	50 to 500 nM	COc1ccc(F)cc1C(=O)NCc1ccc(-c2ncc(-c3ccc(N4CCOCC4)cn3)c3[nH]nc(N)c23)cc1 [Example 76, N-(4-(3-amino-7-(5-morpholinopyridin-2-yl)-1H-pyrazolo[4,3-c]pyridin-4-yl)benzyl)-5-fluoro-2-methoxybenzamide]

Reference: patent EP4741392A1, “1H-PYRAZOLO[4,3-C]PYRIDINE COMPOUND, AND COMPOSITION THEREOF AND USE THEREOF” (Shenzhen TargetRx Co., Ltd., priority 2023, dated 2025)
